Drawing on ChEMBL document CHEMBL5729586, “Inhibitors of LRRK2 kinase” (2023), this text covers IC50 for 8 molecules.

This assay concerns the target Leucine-rich repeat serine/threonine-protein kinase 2 (Homo sapiens, UniProt Q5S007). Put plainly: LRRK2 Enzymatic Assay: LRRKtide substrate (peptide sequence RLGRDKYKTLRQIRQ, derived from human ezrin [amino acids 561-573], moesin [amino acids 539-553] and radixin [amino acids 558-570], obtained from SignalChem, catalogue #L10-58, reconstituted in 20 mM Tris-HCl at pH 7.5 to a final concentration of 1 mg/mL, assay concentration 20 μM) and recombinant human LRRK2 (catalytic domain only [amino acids 970-2527], GST-tagged, expressed in insect cells, obtained from ThermoFisher Scientific, catalogue #PV4874, 0.35 mg/mL, assay concentration 30 nM) were mixed in assay buffer (20 mM Hepes pH 7.5, 10 mM MgCl, 1 mM EGTA, 0.02% Brij35, 0.02 mg/ml BSA, 0.1 mM NaVO, 2 mM DTT, 1% DMSO). Compounds of interest (in DMSO, serial 3-fold dilution from 10 μM to 0.5 nM) or control (1% DMSO) were dispensed into the kinase reaction mixture by Acoustic technology (Echo550; nanoliter range). After incubation at room temperature for 20 minutes, the kinase reaction was initiated by addition of [P]-ATP (Specific activity 10 μCi/μl) and the mixture was incubated at room temperature for 2 hours. The reaction was then stopped by spotting the reaction mixture on strips of phosphocellulose P81 paper. Following washing, the radioactivity of the P81 paper was measured and kinase activity data were expressed as the percent remaining kinase activity in test samples compared to vehicle (dimethyl sulfoxide) reactions.

Chain of Leucine-rich repeat serine/threonine-protein kinase 2 (Q5S007 whole entry, the tested form may be a part): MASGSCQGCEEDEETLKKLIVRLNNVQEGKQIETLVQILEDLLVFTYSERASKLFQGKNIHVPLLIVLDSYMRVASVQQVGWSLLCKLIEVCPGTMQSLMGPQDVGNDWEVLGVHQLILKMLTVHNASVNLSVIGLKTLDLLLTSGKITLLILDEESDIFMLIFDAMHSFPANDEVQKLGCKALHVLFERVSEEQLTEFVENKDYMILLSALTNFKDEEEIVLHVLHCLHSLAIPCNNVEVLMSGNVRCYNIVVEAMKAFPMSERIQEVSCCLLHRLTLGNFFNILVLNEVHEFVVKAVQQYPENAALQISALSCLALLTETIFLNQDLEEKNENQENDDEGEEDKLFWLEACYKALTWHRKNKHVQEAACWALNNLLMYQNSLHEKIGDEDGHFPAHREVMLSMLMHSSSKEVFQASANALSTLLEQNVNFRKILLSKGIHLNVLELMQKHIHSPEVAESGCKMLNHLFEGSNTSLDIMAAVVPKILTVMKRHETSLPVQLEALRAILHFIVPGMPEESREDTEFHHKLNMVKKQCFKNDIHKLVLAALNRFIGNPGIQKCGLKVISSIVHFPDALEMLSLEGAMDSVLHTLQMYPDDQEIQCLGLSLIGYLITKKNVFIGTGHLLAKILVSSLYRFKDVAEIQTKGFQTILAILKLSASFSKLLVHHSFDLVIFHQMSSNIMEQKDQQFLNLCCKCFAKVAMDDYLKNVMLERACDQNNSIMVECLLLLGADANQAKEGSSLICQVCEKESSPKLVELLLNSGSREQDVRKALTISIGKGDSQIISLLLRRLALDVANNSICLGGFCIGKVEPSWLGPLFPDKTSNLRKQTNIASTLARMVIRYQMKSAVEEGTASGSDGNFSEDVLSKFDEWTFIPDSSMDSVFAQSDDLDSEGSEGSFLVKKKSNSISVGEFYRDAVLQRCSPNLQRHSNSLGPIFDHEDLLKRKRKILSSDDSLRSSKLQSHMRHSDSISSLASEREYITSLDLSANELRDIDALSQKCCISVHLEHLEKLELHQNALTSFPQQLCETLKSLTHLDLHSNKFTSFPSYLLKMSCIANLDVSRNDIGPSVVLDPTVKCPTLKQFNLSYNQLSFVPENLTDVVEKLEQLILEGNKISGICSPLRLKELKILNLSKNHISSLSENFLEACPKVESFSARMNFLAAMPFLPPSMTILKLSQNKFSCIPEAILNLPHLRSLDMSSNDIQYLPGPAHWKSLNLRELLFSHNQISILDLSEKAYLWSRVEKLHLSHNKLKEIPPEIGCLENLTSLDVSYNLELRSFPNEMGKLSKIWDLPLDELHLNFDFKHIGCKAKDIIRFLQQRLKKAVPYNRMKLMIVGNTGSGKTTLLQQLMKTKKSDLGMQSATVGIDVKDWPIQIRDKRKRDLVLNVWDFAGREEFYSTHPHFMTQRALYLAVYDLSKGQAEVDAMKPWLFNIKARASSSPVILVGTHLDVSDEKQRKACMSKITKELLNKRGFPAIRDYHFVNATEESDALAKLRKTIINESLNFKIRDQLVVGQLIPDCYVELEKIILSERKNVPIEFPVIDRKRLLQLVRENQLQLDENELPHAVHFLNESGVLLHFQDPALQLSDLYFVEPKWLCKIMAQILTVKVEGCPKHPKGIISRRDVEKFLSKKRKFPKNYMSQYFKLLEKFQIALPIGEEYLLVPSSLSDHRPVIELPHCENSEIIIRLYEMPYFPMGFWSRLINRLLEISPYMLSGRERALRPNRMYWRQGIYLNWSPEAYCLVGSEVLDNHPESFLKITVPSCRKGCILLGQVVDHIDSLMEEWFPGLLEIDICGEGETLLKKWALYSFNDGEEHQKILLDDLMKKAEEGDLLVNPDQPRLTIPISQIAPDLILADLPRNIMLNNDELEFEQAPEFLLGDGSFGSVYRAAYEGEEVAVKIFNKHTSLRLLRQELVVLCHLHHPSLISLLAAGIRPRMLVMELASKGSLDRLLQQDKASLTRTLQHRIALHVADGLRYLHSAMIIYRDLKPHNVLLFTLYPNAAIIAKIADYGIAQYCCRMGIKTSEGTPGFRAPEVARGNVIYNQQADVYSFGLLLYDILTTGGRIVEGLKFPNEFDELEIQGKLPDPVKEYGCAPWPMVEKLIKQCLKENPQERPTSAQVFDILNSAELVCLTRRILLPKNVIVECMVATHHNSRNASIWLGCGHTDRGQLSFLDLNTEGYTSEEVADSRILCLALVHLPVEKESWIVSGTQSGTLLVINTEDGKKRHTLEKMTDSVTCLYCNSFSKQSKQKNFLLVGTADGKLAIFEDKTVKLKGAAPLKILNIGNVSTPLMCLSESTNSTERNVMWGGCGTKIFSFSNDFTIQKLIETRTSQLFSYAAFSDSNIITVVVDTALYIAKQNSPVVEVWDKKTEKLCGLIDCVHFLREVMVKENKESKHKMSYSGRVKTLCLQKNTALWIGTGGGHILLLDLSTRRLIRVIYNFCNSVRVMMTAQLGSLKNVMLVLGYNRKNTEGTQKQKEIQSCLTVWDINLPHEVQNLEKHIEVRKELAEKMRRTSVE

As to `CC(N[C@H]1CC[C@H](COc2ccnc(Nc3ccc(N4CCOCC4)cc3)n2)CC1)C(F)(F)F` (stereo partly drawn), the IC50 (usually the concentration that gives 50% inhibition) is above 400 nM. The result for `CN[C@H]1CC[C@H](COc2nc(Nc3cnn(C(C)C)c3)ncc2Cl)CC1` reads below 50 nM. Then `CC(=O)N[C@H]1CC[C@H](COc2nc(Nc3cnn(CCO)c3)ncc2F)CC1`, with below 50 nM. The result for `Cc1nn(C(C)(C)C#N)cc1Nc1ncc(F)c(OCC2CCNCC2(F)F)n1` (stereo not drawn) reads below 50 nM; that for `CN[C@H]1CC[C@H](COc2nc(Nc3cn(C(C)(C)C#N)nc3C)ncc2C2CC2)CC1`, below 50 nM; that for `FC(F)CN[C@H]1CC[C@H](COc2nc(Nc3ccc(N4CCOCC4)cc3)ncc2Cl)CC1`, below 50 nM. As for `CC(=O)N[C@H]1CC[C@H](COc2nc(Nc3ccc(N4C[C@@H](C)O[C@@H](C)C4)cc3)ncc2C)CC1`, the IC50 was below 50 nM. The result for `CC(=O)N[C@H]1CC[C@@H](COc2nc(Nc3ccc(N4C[C@@H](C)O[C@@H](C)C4)cc3)ncc2F)C1` reads below 50 nM.
